Blank lines part the entries; values can stand above or below the compound they belong to. Calls of active or inactive are those of the source. Peptide text beside a SMILES is read from it.
Legend:
[1] = molecular target: T1, Heat shock factor protein 1 (Mus musculus, UniProt P38532); test: decrease of HSF1-responsive luciferase luminescence – cell-based, NIH3T3, dose retest, confirmation (AID 2382); format: functional;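 further: NIH3T3 fibroblasts with HSF1-driven luciferase reporter stressed by proteasome inhibitor MG132; luminescence from HSF1-driven luciferase expression after 8 hours of MG132 stress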
T1 sequence (P38532 whole entry): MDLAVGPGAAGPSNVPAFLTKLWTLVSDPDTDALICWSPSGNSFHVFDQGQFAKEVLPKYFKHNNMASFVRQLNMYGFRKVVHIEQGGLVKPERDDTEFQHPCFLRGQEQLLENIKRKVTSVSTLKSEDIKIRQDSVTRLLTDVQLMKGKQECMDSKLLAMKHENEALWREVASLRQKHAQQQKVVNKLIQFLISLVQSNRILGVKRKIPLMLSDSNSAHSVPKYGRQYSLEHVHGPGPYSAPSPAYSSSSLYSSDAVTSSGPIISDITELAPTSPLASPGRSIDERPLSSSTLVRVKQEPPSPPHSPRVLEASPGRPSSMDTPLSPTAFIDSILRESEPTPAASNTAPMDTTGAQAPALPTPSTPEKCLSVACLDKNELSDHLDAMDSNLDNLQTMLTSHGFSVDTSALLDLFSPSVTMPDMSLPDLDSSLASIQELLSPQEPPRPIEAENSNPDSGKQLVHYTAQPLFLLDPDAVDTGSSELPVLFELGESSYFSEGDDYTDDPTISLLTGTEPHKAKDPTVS

[2] = viability of uninfected HEp-2 cells – cell-based, HTS, cytotoxicity control for RSV inhibitor project, dose response (AID 2410); format: functional; conditions: human respiratory syncytial virus
[3] = molecular target: Cytochrome P450 2D6 (Homo sapiens, UniProt P10635);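 further: CYP2D6 member of a cytochrome P450 panel assay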
[4] = molecular target: Cytochrome P450 2C19 (Homo sapiens, UniProt P33261); test: Cytochrome panel assay with activity outcomes. Panel member name: p450-cyp2c19 Compounds with AC50 equal or less than 10 uM are considered active; format: functional; conditions: read-out: AC50
[5] = molecular target: Cytochrome P450 3A4 (Homo sapiens, UniProt P08684);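 further: CYP3A4 tested as one member of a cytochrome P450 panel screen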
[6] = molecular target: Paired box protein Pax-8 (Homo sapiens, UniProt Q06710); test: PAX8 transcriptional activity inhibition in RMG-I – RMG-I cells, luciferase, cherry-pick, dose response (AID 687027); format: functional, cell-based;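 further: luciferase reporter driven by Pax8 target thyroperoxidase promoter measured by SteadyGlo luminescence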
[7] = molecular target: Cytochrome P450 2C9 (Homo sapiens, UniProt P11712)
[8] = molecular target: T2, Rac GTPase-activating protein 1 (Homo sapiens, UniProt Q9H0H5); test: blockers of MgcRacGAP-driven Rac1 GTP hydrolysis – biochemical, ADP Hunter fluorescence, primary and confirmatory, confirmation (AID 624330); format: functional
T2 sequence (Q9H0H5 whole entry): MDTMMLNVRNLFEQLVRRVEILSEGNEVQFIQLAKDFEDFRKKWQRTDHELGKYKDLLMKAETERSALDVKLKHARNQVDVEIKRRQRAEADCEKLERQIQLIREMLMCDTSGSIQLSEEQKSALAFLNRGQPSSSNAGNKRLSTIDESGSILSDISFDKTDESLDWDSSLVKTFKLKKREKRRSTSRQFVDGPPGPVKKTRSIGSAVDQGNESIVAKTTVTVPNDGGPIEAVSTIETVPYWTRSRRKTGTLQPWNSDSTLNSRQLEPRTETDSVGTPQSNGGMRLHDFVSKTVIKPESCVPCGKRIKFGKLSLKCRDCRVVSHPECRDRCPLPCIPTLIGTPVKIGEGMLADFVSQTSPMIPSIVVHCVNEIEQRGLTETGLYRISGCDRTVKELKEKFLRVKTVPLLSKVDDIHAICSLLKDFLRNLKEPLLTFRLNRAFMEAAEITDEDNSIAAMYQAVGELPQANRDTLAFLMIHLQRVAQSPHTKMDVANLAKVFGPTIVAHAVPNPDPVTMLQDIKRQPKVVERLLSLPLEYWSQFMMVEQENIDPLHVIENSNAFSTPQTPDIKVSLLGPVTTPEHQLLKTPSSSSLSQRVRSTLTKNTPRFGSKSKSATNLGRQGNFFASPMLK

[9] = molecular target: T3, Cytochrome P450 1A2 (Homo sapiens, UniProt P05177);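 further: PubChem cytochrome P450 panel assay, CYP1A2 panel member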
T3 sequence (P05177 whole entry): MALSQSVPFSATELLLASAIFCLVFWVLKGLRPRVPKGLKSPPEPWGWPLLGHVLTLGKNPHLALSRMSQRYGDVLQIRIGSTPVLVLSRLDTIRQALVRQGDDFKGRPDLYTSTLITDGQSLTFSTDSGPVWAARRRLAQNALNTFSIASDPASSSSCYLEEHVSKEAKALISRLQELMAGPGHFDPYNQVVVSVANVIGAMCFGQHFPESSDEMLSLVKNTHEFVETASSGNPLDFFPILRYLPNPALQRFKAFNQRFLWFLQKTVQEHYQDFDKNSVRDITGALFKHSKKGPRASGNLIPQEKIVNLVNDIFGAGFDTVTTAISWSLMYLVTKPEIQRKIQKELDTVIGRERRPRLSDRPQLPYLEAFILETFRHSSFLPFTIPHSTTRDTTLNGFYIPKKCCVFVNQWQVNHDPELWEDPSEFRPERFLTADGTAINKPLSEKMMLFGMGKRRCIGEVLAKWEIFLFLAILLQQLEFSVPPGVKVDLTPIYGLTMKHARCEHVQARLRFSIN

Cytochrome P450 2C19, sequence (P33261 whole entry): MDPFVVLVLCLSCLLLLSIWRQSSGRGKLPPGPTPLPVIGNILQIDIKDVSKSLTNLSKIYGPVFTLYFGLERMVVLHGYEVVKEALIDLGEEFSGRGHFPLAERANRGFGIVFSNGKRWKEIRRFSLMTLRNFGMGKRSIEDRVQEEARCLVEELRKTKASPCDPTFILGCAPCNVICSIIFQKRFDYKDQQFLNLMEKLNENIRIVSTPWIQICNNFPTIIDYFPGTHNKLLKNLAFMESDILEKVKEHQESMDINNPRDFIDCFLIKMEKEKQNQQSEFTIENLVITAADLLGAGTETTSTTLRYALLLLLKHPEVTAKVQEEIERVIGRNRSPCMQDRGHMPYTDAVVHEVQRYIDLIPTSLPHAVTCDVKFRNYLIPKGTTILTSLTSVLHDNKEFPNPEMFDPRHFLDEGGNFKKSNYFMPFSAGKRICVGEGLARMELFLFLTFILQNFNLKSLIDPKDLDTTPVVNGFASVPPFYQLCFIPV
Cytochrome P450 3A4, sequence (P08684 whole entry): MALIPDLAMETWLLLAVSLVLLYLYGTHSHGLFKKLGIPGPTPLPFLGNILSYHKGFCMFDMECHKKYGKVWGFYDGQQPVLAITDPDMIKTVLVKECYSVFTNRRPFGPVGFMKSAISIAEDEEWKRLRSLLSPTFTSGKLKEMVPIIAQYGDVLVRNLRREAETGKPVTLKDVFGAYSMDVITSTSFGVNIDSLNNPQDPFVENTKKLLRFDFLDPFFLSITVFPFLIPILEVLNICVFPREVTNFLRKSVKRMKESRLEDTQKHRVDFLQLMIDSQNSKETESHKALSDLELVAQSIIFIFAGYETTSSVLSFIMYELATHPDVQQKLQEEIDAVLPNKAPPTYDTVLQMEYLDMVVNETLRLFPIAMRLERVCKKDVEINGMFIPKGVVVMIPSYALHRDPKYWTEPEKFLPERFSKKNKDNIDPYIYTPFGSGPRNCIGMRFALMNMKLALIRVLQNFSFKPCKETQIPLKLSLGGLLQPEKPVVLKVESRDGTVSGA
Cytochrome P450 2D6, sequence (P10635 whole entry): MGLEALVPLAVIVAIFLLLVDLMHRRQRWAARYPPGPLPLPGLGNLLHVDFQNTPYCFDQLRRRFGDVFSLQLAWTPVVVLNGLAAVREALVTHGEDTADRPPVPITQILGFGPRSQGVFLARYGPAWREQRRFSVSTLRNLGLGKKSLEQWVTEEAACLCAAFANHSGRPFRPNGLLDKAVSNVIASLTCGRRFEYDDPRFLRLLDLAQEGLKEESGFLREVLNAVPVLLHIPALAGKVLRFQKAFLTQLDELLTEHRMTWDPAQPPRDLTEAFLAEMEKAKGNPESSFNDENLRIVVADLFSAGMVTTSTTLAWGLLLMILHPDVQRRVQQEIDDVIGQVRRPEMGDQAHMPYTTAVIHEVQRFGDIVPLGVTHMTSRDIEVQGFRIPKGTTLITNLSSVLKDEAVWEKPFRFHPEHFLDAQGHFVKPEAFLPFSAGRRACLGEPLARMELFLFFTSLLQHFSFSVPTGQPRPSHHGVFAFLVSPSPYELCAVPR
Cytochrome P450 2C9, sequence (P11712 whole entry): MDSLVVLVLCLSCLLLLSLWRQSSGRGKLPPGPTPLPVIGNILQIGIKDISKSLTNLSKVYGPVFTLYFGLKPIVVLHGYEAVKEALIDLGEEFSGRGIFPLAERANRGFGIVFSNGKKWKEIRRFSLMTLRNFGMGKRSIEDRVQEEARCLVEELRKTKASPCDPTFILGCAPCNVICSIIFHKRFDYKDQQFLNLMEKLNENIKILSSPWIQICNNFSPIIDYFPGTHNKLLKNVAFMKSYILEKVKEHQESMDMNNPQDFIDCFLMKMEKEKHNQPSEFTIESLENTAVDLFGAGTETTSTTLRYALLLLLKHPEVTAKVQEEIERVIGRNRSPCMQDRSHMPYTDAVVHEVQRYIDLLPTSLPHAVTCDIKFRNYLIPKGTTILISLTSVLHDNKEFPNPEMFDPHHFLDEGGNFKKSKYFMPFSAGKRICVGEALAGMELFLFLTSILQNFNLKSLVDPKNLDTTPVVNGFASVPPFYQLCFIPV
Paired box protein Pax-8, sequence (Q06710 whole entry): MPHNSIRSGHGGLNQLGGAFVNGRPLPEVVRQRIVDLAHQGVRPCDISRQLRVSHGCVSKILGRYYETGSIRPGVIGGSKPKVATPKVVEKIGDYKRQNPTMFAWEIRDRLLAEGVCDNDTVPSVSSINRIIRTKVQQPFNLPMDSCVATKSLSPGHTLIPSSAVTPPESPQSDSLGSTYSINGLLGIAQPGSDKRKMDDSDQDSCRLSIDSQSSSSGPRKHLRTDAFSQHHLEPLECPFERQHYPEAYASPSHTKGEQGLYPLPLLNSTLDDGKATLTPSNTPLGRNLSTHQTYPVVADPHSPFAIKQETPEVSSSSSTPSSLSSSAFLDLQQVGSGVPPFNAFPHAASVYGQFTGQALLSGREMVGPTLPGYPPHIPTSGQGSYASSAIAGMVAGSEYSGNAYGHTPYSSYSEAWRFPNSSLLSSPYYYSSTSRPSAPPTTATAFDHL

Structure (SMILES): O=C(c1ccccc1Cc1ccccc1)N1CCN(S(=O)(=O)c2ccccc2Br)CC1
CC50 [2]: 33.7 µM (active)

Structure (SMILES): CCc1c2c(nc3cccc(OC)c13)OC(CC)C2 (centres undefined)
AC50 [3]: 39.8 µM (inconclusive) | AC50 [4]: 20 µM (inconclusive)

Structure (SMILES): CC(C)(C)C(CN1CCCC1)OC(=O)c1ccccc1 (centres undefined)
EC50 [1]: 19.7 µM (active)

Structure (SMILES): O=C(c1cccc(F)c1)N1CCC[C@@]2(CCN(Cc3ccncc3)C2)C1
AC50 [3]: 25.1 µM (inconclusive) | AC50 [7]: 20 µM (inconclusive)

Structure (SMILES): Cc1ccnc(NC(=O)c2cccc(S(=O)(=O)N3CCN(c4ccc(F)cc4)CC3)c2)c1
CC50 [2]: 13.4 µM (active)

Structure (SMILES): Cc1ccc(-c2nnn(CC(=O)N(Cc3ccco3)C(C(=O)NC(C)(C)C)c3ccc(C)o3)n2)o1 (centres undefined)
CC50 [2]: > 50 µM (active)

Structure (SMILES): CCOCC(=O)Nc1ccc([N+](=O)[O-])cc1Cl
CC50 [2]: > 50 µM (active)

Structure (SMILES): S=C(c1ccc(-c2ccc(Cl)c(Cl)c2)o1)N1CCOCC1
CC50 [2]: 29.4 µM (active)

Structure (SMILES): Cc1ccc(COn2c(-c3ccc(Cl)cc3)nc3ccc([N+](=O)[O-])cc32)cc1
AC50 [5]: 3.55 µM (inconclusive) | AC50 [7]: 8.91 µM (inconclusive)

Structure (SMILES): NCCSC(c1ccccc1)c1ccccc1
AC50 [5]: 3.16 µM (inconclusive) | AC50 [9]: 1.58 µM (inconclusive)

Structure (SMILES): CC1CN(C(=O)c2cc(S(=O)(=O)N(C)c3ccc(F)cc3)ccc2Cl)CC(C)O1 (centres undefined)
EC50 [1]: > 195 µM (not active)

Structure (SMILES): CCc1ccc(NC(=S)N2CCN(c3cccc(C(F)(F)F)c3)CC2)cc1
AC50 [3]: 0.01 µM (inconclusive) | AC50 [4]: 4.47 µM (inconclusive)

Structure (SMILES): O=c1cnc2cnc(Nc3ccccc3)nc2n1C[C@H]1CCCO1
AC50 [5]: 31.6 µM (inconclusive)

Structure (SMILES): COc1cc(/C=N/NC(=O)C2(O)c3ccccc3-c3ccccc32)ccc1O
IC50 [8]: 47.6 µM (active)

Structure (SMILES): COCCn1c(=O)c(-c2ccc(OC)cc2)nc2cnc(Oc3cccc(Cl)c3)nc21
AC50 [5]: 2 µM (inconclusive) | AC50 [9]: 6.31 µM (inconclusive)

Structure (SMILES): Cc1ccc(C)c(N2CCN(C(=O)C3CCCN(c4ncnc5c4nc4n5CCCCC4)C3)CC2)c1 (centres undefined)
CC50 [2]: 20.6 µM (active)

Structure (SMILES): C=CC(C)(C)c1[nH]c2ccccc2c1C1=C(O)C(O)=C(c2c[nH]c3c(CC=C(C)C)cccc23)C(=O)C1=O
AC50 [5]: 25.1 µM (inconclusive)

Structure (SMILES): Brc1cccc(OCCN2CCOCC2)c1
IC50 [8]: 134 µM (active)

Structure (SMILES): O=C(NC1CCCc2ccccc21)C1CCN(S(=O)(=O)N2CCCCCC2)CC1 (centres undefined)
AC50 [3]: 20 µM (inconclusive) | AC50 [7]: 31.6 µM (inconclusive)

Structure (SMILES): C=C(Cl)COc1ccc2c(CCCC)cc(=O)oc2c1
CC50 [2]: 38.2 µM (active)

Structure (SMILES): C=CCNC(=O)c1c(O)c2cccc3c2n(c1=O)CCC3
CC50 [2]: > 50 µM (active)

Structure (SMILES): O=C1c2ccccc2CCC12N=NCC2c1ccc(Cl)cc1 (centres undefined)
AC50 [3]: 28.2 µM (inconclusive) | AC50 [5]: 39.8 µM (inconclusive) | AC50 [9]: 20 µM (inconclusive)

Structure (SMILES): O=C(c1nn(Cc2ccccc2)c(=O)c2ccccc12)N1CCN(C/C=C/c2ccccc2)CC1
AC50 [3]: 17.8 µM (inconclusive) | AC50 [9]: 20 µM (inconclusive)

Structure (SMILES): O=c1c(CCc2ccccc2)nc2cncnc2n1-c1ccccc1
AC50 [3]: 25.1 µM (inconclusive) | AC50 [5]: 5.01 µM (inconclusive) | AC50 [7]: 25.1 µM (inconclusive)

Structure (SMILES): COc1ccccc1-c1cc(NCc2cnc(C)cn2)ncn1
AC50 [3]: 20 µM (inconclusive)

Structure (SMILES): NCC#Cc1ccccc1
AC50 [5]: 15.8 µM (inconclusive)

Structure (SMILES): Oc1nc2ccccc2n1C1CCN(C(c2cccc3ccccc23)c2nnnn2-c2ccc3c(c2)OCCO3)CC1 (centres undefined)
AC50 [6]: 3.78 µM (active)

Structure (SMILES): COCC(=O)N1CCC2(CCCN(Cc3ccncc3)C2)CC1
AC50 [3]: 15.8 µM (inconclusive) | AC50 [5]: 12.6 µM (inconclusive)

Structure (SMILES): O=C(C[N+]12CN3CN(CN(C3)C1)C2)c1ccc(-c2ccccc2)cc1
AC50 [5]: 3.16 µM (inconclusive) | AC50 [7]: 3.16 µM (inconclusive)

Structure (SMILES): COc1cc(C=O)ccc1OC(=O)c1ccc(C(C)C)cc1
EC50 [1]: > 195 µM (not active)

Structure (SMILES): COc1ccc(NC2CCCN(C(=O)c3ccccc3N3CCOCC3)C2)cc1OC (centres undefined)
IC50 [8]: 198 µM (active)

Structure (SMILES): FC(F)(F)c1nc2nc(Cl)c(Cl)nc2n1CCCN1CCOCC1
AC50 [3]: 3.98 µM (inconclusive) | AC50 [5]: 5.01 µM (inconclusive) | AC50 [9]: 3.16 µM (inconclusive)

Structure (SMILES): CS(=O)(=O)Nc1ccc(C(=O)N2CCN(c3ccccc3)CC2)cc1
AC50 [5]: 25.1 µM (inconclusive) | AC50 [7]: 7.94 µM (inconclusive) | AC50 [4]: 39.8 µM (inconclusive)

Structure (SMILES): NC(=O)c1cc2n(n1)C(C(F)(F)F)CC(c1ccco1)N2 (centres undefined)
CC50 [2]: 24.5 µM (active)

Results, then the compound that gave them:

EC50 [1]: > 195 µM (not active)
Structure (SMILES): COc1cc(NS(=O)(=O)c2ccc(NC(=O)/C=C/C(=O)O)cc2)nc(OC)n1

AC50 [5]: 0.631 µM (inconclusive) | AC50 [4]: 3.55 µM (inconclusive)
Structure (SMILES): CCn1c(=O)c2c(=O)cc(O)oc2c2ccccc21

AC50 [6]: 19.1 µM (active)
Structure (SMILES): COc1cccc(-c2nc(CS(=O)(=O)CC(=O)NCCCN3CC(C)CC(C)C3)c(C)o2)c1 (centres undefined)

AC50 [3]: 17.8 µM (inconclusive) | AC50 [5]: 2.82 µM (inconclusive) | AC50 [7]: 5.62 µM (inconclusive) | AC50 [4]: 5.01 µM (inconclusive)
Structure (SMILES): Cc1cccc(NC2=NN=C(c3ccc4c(c3)OCCO4)CS2)c1

AC50 [5]: 15.8 µM (inconclusive)
Structure (SMILES): CCOC(=O)c1cccc(NC(=O)COc2ccc([N+](=O)[O-])cc2)c1

IC50 [8]: 100 µM (active)
Structure (SMILES): CCn1c2ccccc2c2cc(NC(=O)CNC)ccc21

AC50 [5]: 39.8 µM (inconclusive) | AC50 [9]: 15.8 µM (inconclusive) | AC50 [4]: 14.1 µM (inconclusive)
Structure (SMILES): O=C(Cn1ccc([N+](=O)[O-])n1)NCc1cccs1

EC50 [1]: 5.59 µM (active)
Structure (SMILES): O=C(CSc1nc2ccccc2s1)N/N=C/c1ccccc1C(=O)O

AC50 [3]: 12.6 µM (inconclusive)
Structure (SMILES): CCOCc1cnc(C)nc1NCC(=O)c1c(C)[nH]c2ccccc12

EC50 [1]: > 195 µM (not active)
Structure (SMILES): Cc1cn2c(nc(=O)c3cccnc32)s1

AC50 [3]: 5.01 µM (inconclusive) | AC50 [9]: 10 µM (inconclusive)
Structure (SMILES): CCN(CC)CCNC(=O)c1cc(Br)c(N)cc1OC [BROMOPRIDE]

IC50 [8]: 63.7 µM (active)
Structure (SMILES): O=C(CNC(=O)c1cccs1)N/N=C/c1ccc(O)cc1O

EC50 [1]: > 195 µM (not active)
Structure (SMILES): COc1ccc(/C=C/C(=O)N2CCC(C(N)=O)CC2)cc1S(=O)(=O)N1CCOCC1

EC50 [1]: > 195 µM (not active)
Structure (SMILES): Cc1ccc(/C=C/C(=O)OCC(=O)NCCN2C(=O)CSC2=O)o1

AC50 [5]: 17.8 µM (inconclusive) | AC50 [4]: 39.8 µM (inconclusive)
Structure (SMILES): CCCOc1ccc(C2C(=O)N(C3CCCCC3)CC(=O)N2C2CC2)cc1OC (centres undefined)

AC50 [3]: 15.8 µM (inconclusive) | AC50 [4]: 17.8 µM (inconclusive)
Structure (SMILES): COC(=O)C(CC(C)C)NC(=O)C(N)Cc1ccccc1 (stereo not drawn) (H-Phe-Leu-OMe; configuration not given here)

EC50 [1]: > 195 µM (not active)
Structure (SMILES): Cc1ccccc1C(=O)Nc1nnc(CC(=O)N/N=C/c2ccco2)s1

EC50 [1]: > 195 µM (not active)
Structure (SMILES): Cc1cc(OCC(=O)NCCO)cc(C)c1Cl

From ChEMBL document CHEMBL1201862, “PubChem BioAssay data set” (2004)
